From patent US9062124B2, “GIP-based mixed agonists for treatment of metabolic disorders and obesity” (priority 2008, dated 2015)
Where a SMILES comes first, the peptide text is derived from it. [ ]: non-standard residue; d: D form. The star is where a group is joined. Octanoyl = CCCCCCCC(=O)*; Abu = CC[C@H](N)C(=O)O; Aib = CC(C)(N)C(=O)O

Columns and labels:
Format in all cases: cell-based
glucagon receptor = biological target: T1, glucagon receptor (Homo sapiens, UniProt P47871); assay: cAMP synthesis functional assay (firefly luciferase reporter in HEK293 cells), glucagon receptor; conditions: for EC50: Glucagon Receptor EC50, cAMP luciferase reporter assay as in Example 16; for Glucagon Receptor relative activity: relative to the standard (Std.) EC50 of the same run
T1 construct: expressed in transfected cells; host or cells: HEK293
T1 sequence (P47871 26-477): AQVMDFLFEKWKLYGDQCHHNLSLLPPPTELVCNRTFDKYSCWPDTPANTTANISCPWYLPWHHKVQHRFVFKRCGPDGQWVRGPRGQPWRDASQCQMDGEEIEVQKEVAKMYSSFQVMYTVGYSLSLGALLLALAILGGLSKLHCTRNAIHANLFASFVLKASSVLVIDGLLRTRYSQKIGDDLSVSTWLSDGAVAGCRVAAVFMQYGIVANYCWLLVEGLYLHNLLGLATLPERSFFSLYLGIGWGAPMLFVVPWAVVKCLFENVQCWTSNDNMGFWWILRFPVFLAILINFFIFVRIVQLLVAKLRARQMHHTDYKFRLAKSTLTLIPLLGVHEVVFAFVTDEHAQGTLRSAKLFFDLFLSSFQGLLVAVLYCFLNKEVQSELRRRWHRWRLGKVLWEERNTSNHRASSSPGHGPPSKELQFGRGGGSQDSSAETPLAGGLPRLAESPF

GLP-1 receptor = biological target: T2, GLP-1 receptor (Homo sapiens, UniProt P43220); assay: cAMP synthesis functional assay (firefly luciferase reporter in HEK293 cells), GLP-1 receptor; conditions: for EC50: GLP-1 Receptor EC50, cAMP luciferase reporter assay as in Example 16; for GLP-1 Receptor relative activity: relative to the standard (Std.) EC50 of the same run
T2 construct: expressed in transfected cells; host or cells: HEK293
T2 sequence (P43220 24-463, species assumed): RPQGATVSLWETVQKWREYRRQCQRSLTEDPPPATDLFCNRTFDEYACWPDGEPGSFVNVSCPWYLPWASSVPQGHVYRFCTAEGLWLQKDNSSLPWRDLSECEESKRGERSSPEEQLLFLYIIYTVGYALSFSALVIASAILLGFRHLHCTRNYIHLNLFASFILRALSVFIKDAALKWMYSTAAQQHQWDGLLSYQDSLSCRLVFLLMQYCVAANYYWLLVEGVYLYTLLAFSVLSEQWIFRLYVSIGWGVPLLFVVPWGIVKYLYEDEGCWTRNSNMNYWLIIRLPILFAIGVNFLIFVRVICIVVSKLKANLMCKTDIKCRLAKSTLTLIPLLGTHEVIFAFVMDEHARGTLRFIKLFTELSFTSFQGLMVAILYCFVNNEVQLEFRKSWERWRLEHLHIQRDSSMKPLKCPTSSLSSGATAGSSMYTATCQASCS

GIP receptor = biological target: T3, GIP receptor (Homo sapiens, UniProt P48546); assay: cAMP synthesis functional assay (firefly luciferase reporter in HEK293 cells), GIP receptor; conditions: for GIP Receptor relative activity: relative to the standard (Std.) EC50 of the same run
T3 construct: expressed in transfected cells; host or cells: HEK293
T3 sequence (P48546 22-466): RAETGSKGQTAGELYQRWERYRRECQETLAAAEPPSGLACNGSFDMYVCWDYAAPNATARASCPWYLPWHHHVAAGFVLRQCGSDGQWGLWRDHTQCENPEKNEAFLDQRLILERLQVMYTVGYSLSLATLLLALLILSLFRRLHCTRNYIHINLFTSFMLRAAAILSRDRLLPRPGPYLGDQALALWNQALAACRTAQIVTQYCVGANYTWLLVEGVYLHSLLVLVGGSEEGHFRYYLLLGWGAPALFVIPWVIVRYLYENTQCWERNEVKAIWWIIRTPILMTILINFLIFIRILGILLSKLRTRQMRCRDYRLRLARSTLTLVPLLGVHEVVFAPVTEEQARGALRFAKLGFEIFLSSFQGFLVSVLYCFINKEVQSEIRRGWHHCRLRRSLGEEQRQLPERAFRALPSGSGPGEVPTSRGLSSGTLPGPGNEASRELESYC

[1] = tested on: glucagon receptor, GLP-1 receptor or GIP receptor; assay: Agonist profile across receptors assigned from the cAMP reporter assay data; conditions: assigned from the in vitro EC50 data of Tables 1-4

Row | SMILES | EC50 (glucagon receptor) [nM] | Glucagon Receptor relative activity (glucagon receptor) [%] | EC50 (GLP-1 receptor) [nM] | GLP-1 Receptor relative activity (GLP-1 receptor) [%] | EC50 (GIP receptor; GIP Receptor EC50, cAMP luciferase reporter assay as in Example 16) [nM] | GIP Receptor relative activity (GIP receptor) [%] | receptor activity profile (glucagon / GLP-1 / GIP agonism) [1]
1 | CCCCCCCCCCCCCCCC(=O)NCCCC[C@H](NC(=O)[C@H](CO)NC(=O)[C@@H]1CCCN1C(=O)[C@@H]1CCCN1C(=O)[C@@H]1CCCN1C(=O)[C@H](C)NC(=O)CNC(=O)[C@H](CO)NC(=O)[C@H](CO)NC(=O)[C@@H]1CCCN1C(=O)CNC(=O)CNC(=O)[C@H](CC(N)=O)NC(=O)[C@H](CCSC)NC(=O)[C@H](CC(C)C)NC(=O)[C@H](Cc1c[nH]c2ccccc12)NC(=O)[C@H](CS)NC(=O)[C@@H](NC(=O)[C@H](Cc1ccccc1)NC(=O)[C@H](CCC(=O)O)NC(=O)C(C)(C)NC(=O)[C@H](C)NC(=O)[C@H](C)NC(=O)[C@H](CCC(N)=O)NC(=O)[C@H](CCCCN)NC(=O)[C@H](CC(=O)O)NC(=O)[C@H](CC(C)C)NC(=O)[C@H](Cc1ccc(O)cc1)NC(=O)[C@@H](NC(=O)[C@H](CO)NC(=O)[C@H](Cc1ccc(O)cc1)NC(=O)[C@H](CC(=O)O)NC(=O)[C@H](CO)NC(=O)[C@@H](NC(=O)[C@H](Cc1ccccc1)NC(=O)[C@@H](NC(=O)CNC(=O)[C@H](CCC(N)=O)NC(=O)C(C)(C)NC(=O)[C@@H](N)Cc1ccc(O)cc1)[C@@H](C)O)[C@@H](C)O)[C@@H](C)CC)C(C)C)C(N)=O [mt-297] | 0.0132 | 362.12 | 0.0129 | 125.58 | 0.0168 | 97.02 | exhibited activity at the GIP, GLP-1, and glucagon receptors
2 | CCCCCCCCCCCCCC(=O)NCCCC[C@H](NC(=O)[C@H](CO)NC(=O)[C@@H]1CCCN1C(=O)[C@@H]1CCCN1C(=O)[C@@H]1CCCN1C(=O)[C@H](C)NC(=O)CNC(=O)[C@H](CO)NC(=O)[C@H](CO)NC(=O)[C@@H]1CCCN1C(=O)CNC(=O)CNC(=O)[C@H](C)NC(=O)[C@H](CC(C)C)NC(=O)[C@H](CC(C)C)NC(=O)[C@H](Cc1c[nH]c2ccccc12)NC(=O)[C@H](CS)NC(=O)[C@@H](NC(=O)[C@H](Cc1ccccc1)NC(=O)[C@H](CCC(=O)O)NC(=O)C(C)(C)NC(=O)[C@H](C)NC(=O)[C@H](C)NC(=O)[C@H](CCC(N)=O)NC(=O)[C@H](CCCCN)NC(=O)[C@H](CC(=O)O)NC(=O)[C@H](CC(C)C)NC(=O)[C@H](Cc1ccc(O)cc1)NC(=O)[C@@H](NC(=O)[C@H](CO)NC(=O)[C@H](Cc1ccc(O)cc1)NC(=O)[C@H](CC(=O)O)NC(=O)[C@H](CO)NC(=O)[C@@H](NC(=O)[C@H](Cc1ccccc1)NC(=O)[C@@H](NC(=O)CNC(=O)[C@H](CCC(=O)O)NC(=O)C(C)(C)NC(=O)[C@@H](N)Cc1ccc(O)cc1)[C@@H](C)O)[C@@H](C)O)[C@@H](C)CC)C(C)C)C(N)=O [mt-306] | 1.5 | 3.20 |  | 80.60 |  | 254.69 | exhibited activity at the GIP, GLP-1, and glucagon receptors
3 | CCCCCCCCCCCCCCCCCC(=O)NCCCC[C@H](NC(=O)[C@H](CO)NC(=O)[C@@H]1CCCN1C(=O)[C@@H]1CCCN1C(=O)[C@@H]1CCCN1C(=O)[C@H](C)NC(=O)CNC(=O)[C@H](CO)NC(=O)[C@H](CO)NC(=O)[C@@H]1CCCN1C(=O)CNC(=O)CNC(=O)[C@H](C)NC(=O)[C@H](CC(C)C)NC(=O)[C@H](CC(C)C)NC(=O)[C@H](Cc1c[nH]c2ccccc12)NC(=O)[C@H](CS)NC(=O)[C@@H](NC(=O)[C@H](Cc1ccccc1)NC(=O)[C@H](CCC(=O)O)NC(=O)C(C)(C)NC(=O)[C@H](C)NC(=O)[C@H](C)NC(=O)[C@H](CCC(N)=O)NC(=O)[C@H](CCCCN)NC(=O)[C@H](CC(=O)O)NC(=O)[C@H](CC(C)C)NC(=O)[C@H](Cc1ccc(O)cc1)NC(=O)[C@@H](NC(=O)[C@H](CO)NC(=O)[C@H](Cc1ccc(O)cc1)NC(=O)[C@H](CC(=O)O)NC(=O)[C@H](CO)NC(=O)[C@@H](NC(=O)[C@H](Cc1ccccc1)NC(=O)[C@@H](NC(=O)CNC(=O)[C@H](CCC(=O)O)NC(=O)C(C)(C)NC(=O)[C@@H](N)Cc1ccc(O)cc1)[C@@H](C)O)[C@@H](C)O)[C@@H](C)CC)C(C)C)C(N)=O [mt-307] | 0.288 | 16.61 |  | 113.29 |  | 128.35 | exhibited activity at the GIP, GLP-1, and glucagon receptors
4 | CCCCCCCC(=O)NCCCC[C@H](NC(=O)[C@H](CO)NC(=O)[C@@H]1CCCN1C(=O)[C@@H]1CCCN1C(=O)[C@@H]1CCCN1C(=O)[C@H](C)NC(=O)CNC(=O)[C@H](CO)NC(=O)[C@H](CO)NC(=O)[C@@H]1CCCN1C(=O)CNC(=O)CNC(=O)[C@H](C)NC(=O)[C@H](CC(C)C)NC(=O)[C@H](CC(C)C)NC(=O)[C@H](Cc1c[nH]c2ccccc12)NC(=O)[C@H](CC(N)=O)NC(=O)[C@@H](NC(=O)[C@H](Cc1ccccc1)NC(=O)[C@H](CCC(=O)O)NC(=O)C(C)(C)NC(=O)[C@H](C)NC(=O)[C@H](C)NC(=O)[C@H](CCC(N)=O)NC(=O)[C@H](CCCCN)NC(=O)[C@H](CC(=O)O)NC(=O)[C@H](CC(C)C)NC(=O)[C@H](Cc1ccc(O)cc1)NC(=O)[C@@H](NC(=O)[C@H](CO)NC(=O)[C@H](Cc1ccc(O)cc1)NC(=O)[C@H](CC(=O)O)NC(=O)[C@H](CO)NC(=O)[C@@H](NC(=O)[C@H](Cc1ccccc1)NC(=O)[C@@H](NC(=O)CNC(=O)[C@H](CCC(N)=O)NC(=O)C(C)(C)NC(=O)[C@@H](N)Cc1ccc(O)cc1)[C@@H](C)O)[C@@H](C)O)[C@@H](C)CC)C(C)C)C(N)=O [mt-323] (H-Y[Aib]QGTFTSDYSIYLDKQAA[Aib]EFVNWLLAGGPSSGAPPPSK(Octanoyl)-NH2; N-terminus assumed) | 0.217 | 39.00 | 0.0571 | 35.55 |  | 122.62 | exhibited activity at the GIP, GLP-1, and glucagon receptors
5 | CC[C@H](C)[C@H](NC(=O)[C@H](CO)NC(=O)[C@H](Cc1ccc(O)cc1)NC(=O)[C@H](CC(=O)O)NC(=O)[C@H](CO)NC(=O)[C@H](CO)NC(=O)[C@H](Cc1ccccc1)NC(=O)[C@@H](NC(=O)CNC(=O)[C@H](CCC(N)=O)NC(=O)C(C)(C)NC(=O)[C@@H](N)Cc1ccc(O)cc1)[C@@H](C)O)C(=O)N[C@@H](Cc1ccc(O)cc1)C(=O)N[C@@H](CC(C)C)C(=O)N[C@@H](CC(=O)O)C(=O)N[C@@H](CCCCN)C(=O)N[C@@H](CCC(N)=O)C(=O)N[C@@H](C)C(=O)N[C@@H](C)C(=O)NC(C)(C)C(=O)N[C@@H](CCC(=O)O)C(=O)N[C@@H](Cc1ccccc1)C(=O)N[C@H](C(=O)N[C@@H](CC(N)=O)C(=O)N[C@@H](Cc1c[nH]c2ccccc12)C(=O)N[C@@H](CC(C)C)C(=O)N[C@@H](CC(C)C)C(=O)N[C@@H](C)C(=O)NCC(=O)NCC(=O)N1CCC[C@H]1C(=O)N[C@@H](CO)C(=O)N[C@@H](CO)C(=O)NCC(=O)N[C@@H](C)C(=O)N1CCC[C@H]1C(=O)N1CCC[C@H]1C(=O)N1CCC[C@H]1C(=O)N[C@@H](CO)C(=O)N[C@@H](CS)C(N)=O)C(C)C [mt-324] (H-Y[Aib]QGTFSSDYSIYLDKQAA[Aib]EFVNWLLAGGPSSGAPPPSC-NH2; N-terminus assumed) |  | 6.41 |  | 9.68 |  | 30.23 | exhibited activity at the GIP, GLP-1, and glucagon receptors
6 | CC[C@H](NC(=O)[C@H](Cc1ccccc1)NC(=O)[C@@H](NC(=O)CNC(=O)[C@H](CCC(N)=O)NC(=O)C(C)(C)NC(=O)[C@@H](N)Cc1ccc(O)cc1)[C@@H](C)O)C(=O)N[C@@H](CO)C(=O)N[C@@H](CC(=O)O)C(=O)N[C@@H](Cc1ccc(O)cc1)C(=O)N[C@@H](CO)C(=O)N[C@H](C(=O)N[C@@H](Cc1ccc(O)cc1)C(=O)N[C@@H](CC(C)C)C(=O)N[C@@H](CC(=O)O)C(=O)N[C@@H](CCCCN)C(=O)N[C@@H](CCC(N)=O)C(=O)N[C@@H](C)C(=O)N[C@@H](C)C(=O)NC(C)(C)C(=O)N[C@@H](CCC(=O)O)C(=O)N[C@@H](Cc1ccccc1)C(=O)N[C@H](C(=O)N[C@@H](CC(N)=O)C(=O)N[C@@H](Cc1c[nH]c2ccccc12)C(=O)N[C@@H](CC(C)C)C(=O)N[C@@H](CC(C)C)C(=O)N[C@@H](C)C(=O)NCC(=O)NCC(=O)N1CCC[C@H]1C(=O)N[C@@H](CO)C(=O)N[C@@H](CO)C(=O)NCC(=O)N[C@@H](C)C(=O)N1CCC[C@H]1C(=O)N1CCC[C@H]1C(=O)N1CCC[C@H]1C(=O)N[C@@H](CO)C(=O)N[C@@H](CS)C(N)=O)C(C)C)[C@@H](C)CC [mt-325] (H-Y[Aib]QGTF[Abu]SDYSIYLDKQAA[Aib]EFVNWLLAGGPSSGAPPPSC-NH2; N-terminus assumed) |  | 86.45 |  | 0.83 |  | 111.43 | exhibited activity at the glucagon and GIP receptors, but not at the GLP-1 receptor
